Measurements as given in article PMC6226181 (PLoS ONE, 2018).
Non-standard residues stand in square brackets, D forms with d. Residues, ends and D or L forms follow the SMILES beside them. *: point of attachment. AFC = O=c1cc(C(F)(F)F)c2ccc(N*)cc2o1; AMC = Cc1cc(=O)oc2cc(N*)ccc12

How the values were obtained:
anthrax lethal factor [1] = molecular target: T1, anthrax lethal factor (Bacillus anthracis, UniProt P15917); details: cited from earlier work
anthrax lethal factor [2] = molecular target: T1, anthrax lethal factor; type: biochemical; details: 5 hours at 37°C
anthrax lethal factor [3] = molecular target: T1, anthrax lethal factor; type: biochemical; details: 5 hours at 37°C; remark: listed apart in the source

T1 sequence (P15917 34-809 limits assumed): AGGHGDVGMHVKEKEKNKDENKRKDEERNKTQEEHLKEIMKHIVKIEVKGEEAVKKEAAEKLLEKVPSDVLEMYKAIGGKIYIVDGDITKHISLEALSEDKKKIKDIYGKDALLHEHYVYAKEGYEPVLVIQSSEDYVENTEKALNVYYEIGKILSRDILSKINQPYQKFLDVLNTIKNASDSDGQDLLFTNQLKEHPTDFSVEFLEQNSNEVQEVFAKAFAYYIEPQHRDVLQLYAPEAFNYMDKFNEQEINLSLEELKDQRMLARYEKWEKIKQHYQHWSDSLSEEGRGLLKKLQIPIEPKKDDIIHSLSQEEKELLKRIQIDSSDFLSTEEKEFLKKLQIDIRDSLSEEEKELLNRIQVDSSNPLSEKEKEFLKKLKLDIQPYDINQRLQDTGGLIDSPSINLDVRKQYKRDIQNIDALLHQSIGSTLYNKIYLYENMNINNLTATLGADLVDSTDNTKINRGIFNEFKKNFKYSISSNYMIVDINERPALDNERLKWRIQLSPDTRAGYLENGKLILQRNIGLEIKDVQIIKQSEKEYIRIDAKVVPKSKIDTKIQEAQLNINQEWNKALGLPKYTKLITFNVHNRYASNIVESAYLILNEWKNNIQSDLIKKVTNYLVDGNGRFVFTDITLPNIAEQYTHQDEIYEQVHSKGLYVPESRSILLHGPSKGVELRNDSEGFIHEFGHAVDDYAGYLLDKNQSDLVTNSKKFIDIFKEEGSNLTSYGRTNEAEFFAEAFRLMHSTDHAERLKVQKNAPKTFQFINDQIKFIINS

In the case of “7-methoxy-coumarin-4-acetyl (Mca)-Arg-Arg-Lys-Lys-Val-Tyr-Pro-Try-Pro-Met-Glu -2,4-dinitrophenol (DNP) -Thr-Ile-Ala”, the “Cleavage by LF” value (anthrax lethal factor [1]) is listed as “cleaved by LF after the first proline”.
In the case of `CC(=O)N[C@H](CCCCN)C(=O)N[C@H](CCCCN)C(=O)N[C@H](C(=O)N[C@@H](Cc1ccc(O)cc1)C(=O)N1CCC[C@H]1C(=O)Nc1ccc2c(C)cc(=O)oc2c1)C(C)C` [LBL 10100] (Ac-[dK][dK]VYP-{AMC}), the “Cleavage by LF in assay buffer (increase in fluorescence)” value (anthrax lethal factor [2]) is reported as “eliminates hydrolysis at the concentrations of LF used”.
In the case of `CC(=O)N[C@@H](CCCNC(=N)N)C(=O)N[C@@H](CCCNC(=N)N)C(=O)N[C@@H](CCCCN)C(=O)N[C@@H](CCCCN)C(=O)N[C@H](C(=O)N[C@@H](Cc1ccc(O)cc1)C(=O)N1CCC[C@H]1C(=O)Nc1ccc2c(C)cc(=O)oc2c1)C(C)C` [LBL 10079] (Ac-RRKKVYP-{AMC}), the “Cleavage by LF in 1:10 diluted bovine plasma (increase in fluorescence)” value (anthrax lethal factor [3]) is reported as “does not correlate with the amount of LF”.
In the case of `CC(=O)N[C@H](CCCNC(=N)N)C(=O)N[C@H](CCCNC(=N)N)C(=O)N[C@H](CCCCN)C(=O)N[C@H](CCCCN)C(=O)N[C@H](C(=O)N[C@@H](Cc1ccc(O)cc1)C(=O)N1CCC[C@H]1C(=O)Nc1ccc2c(C)cc(=O)oc2c1)C(C)C` [LBL 10097] (Ac-[dR][dR][dK][dK]VYP-{AMC}), the “Cleavage by LF in 1:10 diluted bovine plasma (increase in fluorescence)” value (anthrax lethal factor [3]) is reported as “dependent upon the presence and amount of LF”.
For `CC(=O)N[C@@H](CCCNC(=N)N)C(=O)N[C@H](CCCNC(=N)N)C(=O)N[C@H](CCCCN)C(=O)N[C@H](CCCCN)C(=O)N[C@H](C(=O)N[C@@H](Cc1ccc(O)cc1)C(=O)N1CCC[C@H]1C(=O)Nc1ccc2c(C(F)(F)F)cc(=O)oc2c1)C(C)C` [LBL 10108] (Ac-R[dR][dK][dK]VYP-{AFC}), the “Non-specific cleavage in plasma in the absence of LF” value (plasma proteases) was “neither peptide is cleaved in plasma in the absence of LF”.
